Measurements reported in patent US6995022B1, “Screening of xenobiotics and endogenous compounds for metabolic transformation, formation of toxic metabolites, and bioavailability” (Board of Trustees of the University of Illinois, priority 1998, dated 2006).

Tests used:
[1] = test system: rat liver microsomes containing cytochromes P450 and microsomal glutathione S-transferase
Text: Alternatively, reactive metabolites may be trapped as phase II conjugates such as glutathione adducts.
Glutathione adducts formed from reactive drugs or their activated metabolites in the ultrafiltrate may be trapped and concentrated on a trapping column and then analyzed using LC-MS or LC-MS-MS for identification of the metabolites and for the differentiation of isomeric products.

[2] = test system: rat liver microsomal cytochromes P450; settings: for extent of metabolism by cytochromes P450 indicated by high throughput assays: microsomes
Protocol: Chlorpromazine is an antidepressant-drug that undergoes extensive hepatic metabolism. […] The area under the curve for unreacted chlorpromazine is proportional to the amount of chlorpromazine consumed during the on-line metabolism experiment.
Pentoxyresorufin (1 μg) was injected into the ultrafiltration chamber containing hepatic microsomes as described herein.
Microsomes may be prepared from any types of cells or tissues, which are obtained from any species including humans. For the examples cited, male or female Sprague-Dawley rats (180-200 g) were obtained from Sasco Inc. (Omaha, Nebr.). Microsomes were prepared from rat liver, and protein and cytochrome P450 concentrations were determined using standard procedures (1). […] This washing step may be accelerated by using a higher flow rate, but care should be taken to avoid excessive pressure and rupture of the ultrafiltration membrane.
The ultrafiltration chamber (FIG. 1B) was built in-house out of polyetheretherketone (PEEK) and contained a Teflon®-coated magnetic stirring bar and a Viton® O-ring, which formed a seal around the ultrafiltration membrane. […] Chromatography tubing and fittings were made from polyetheretherketone (PEEK, Upchurch Scientific, Oak Harbor, Wash.).
NADPH and drug substrates were purchased from Sigma Chemical Company (St. Louis, Mo. All solvents were HPLC grade. Into a mobile phase consisting of 50 mM anmmonium acetate, pH 7.4, and 0.1 mM NADPH at a flow rate of 70 μL/min, chlorpromazine (3 μg) in 50 μL buffer was injected into the ultrafiltration chamber. Protonated molecules of chlorpromazine, cofactor NADPH, and the microsomal metabolic products were recorded continuously using positive ion electrospray mass spectrometry. In another experiment, 1 μg of pentoxyresorufin was injected into the ultrafiltration chamber containing hepatic microsomes as described above. […] In some experiments, NADPH was injected simultaneously with substrate instead of being added to the mobile phase.
Typically, a wide mass range was scanned by the mass spectrometer in order to identify the major metabolites (if unknown). Once the major metabolites are known or if only the compounds injected into the first chamber need to be analyzed, selected ion monitoring mass spectrometry is used to follow the appearance of metabolites, monitor the consumption of NADPH, and/or monitor the profile of unreacted compound(s).
The transfer line between the ultrafiltration chamber and the mass spectrometer was flushed for 1 min, then mass spectra were recorded for 2 min.

Caco-2 cells = assay type: in vitro ADME; settings: human, Caco-2, 118 µM
Protocol: Bioavailability assays are generally carried out in one of two ways. In one type of assay, the chamber is loaded with cells (i.e., Caco-2 human intestinal epithelial cells) such that the volume of the cells is significant compared to the volume of the chamber (e.g., 1 million cells/mL), and a size exclusion experiment is carried out. (Hidalgo, et al. 1989). An aliquot of a drug mixture is injected through the chamber and the elution profile is recorded by the mass spectrometer detector. The mixture may contain a single drug or a mixture of drugs under investigation and two internal controls: The negative control compound (such as mannitol) is excluded from entering the cells; and the positive control compound (such as certain steroids) readily enters the cells. Compounds that are excluded from the cells are washed out of the ultrafiltration chamber faster and are detected first, while compounds that enter the cells are distributed into a larger volume within the chamber and require longer to elute. In this manner, quantitative bioavailability or absorption data may be determined. In another type of bioavailability assay, a monolayer of cells (i.e., Caco-2 cells) is grown on an ultrafiltration membrane, which is then mounted in the ultrafiltration chamber with the cells facing the interior of the chamber. […] Compounds that readily enter and pass through the cells are detected first. […]

cytochrome P450 isozymes = settings: cited from earlier work

Row | metabolites detected in high throughput metabolic screening [2] | extent of metabolism by cytochromes P450 indicated by high throughput assays [2] | SMILES | metabolism according to the literature (cytochrome P450 isozymes) | effect on cytochrome P450 isozymes according to the literature (cytochrome P450 isozymes) | further results
1 |  |  | Cc1c[nH]c2ccccc12 [3-methylindole] |  |  | glutathione adducts detected [1]: observed
2 |  |  | CCCCCOc1ccc2nc3ccc(=O)cc-3oc2c1 [Pentoxyresorufin] |  |  | metabolism in control without NADPH [2]: no metabolism occurred
3 |  |  | CC(=O)Oc1ccccc1C(=O)O [aspirin] |  |  | relative elution rates aspirin/propranolol (ratio of slopes of ln [drug] vs. elution time) (Caco-2 cells): 1.6:1
4 | observed | extensive metabolism | CN(C)CCCN1c2ccccc2Sc2ccc(Cl)cc21 [chlorpromazine] | metabolized extensively |  | 
5 | no metabolites | not | O=C1C[C@@H](c2ccc(O)cc2)Oc2cc(O)cc(O)c21 [naringenin] | not metabolized | inhibit the action of certain cytochrome P450 isozymes | 
6 | no metabolites | not | C=C[C@H]1C[N@@]2CC[C@H]1C[C@@H]2[C@@H](O)c1ccnc2ccc(OC)cc12 [quinidine] | not metabolized | inhibit the action of certain cytochrome P450 isozymes | 
